This is an account of results in US10676436B2, “NLRX1 ligands” (Landos Biopharma, Inc., priority 2018, dated 2020).

One assay has as its system CD4+ T cells. Put plainly: Immunological screening in vitro in CD4+ splenocytes, flow cytometry. Type of assay: cell-based, C57BL/6 mice. The text has this: Spleens were excised from C57BL/6 mice. Spleens were crushed between the frosted ends of microscope slides and filtered to provide a cellular suspension. Red blood cells were lysed through hypotonic lysis. Remaining cells were washed and filtered. CD4+ T cells were enriched within the suspension using magnetic sorting based negative selection. Cells were collected and plated within 96 well plates coated with anti-CD3 and cultured in the presence of NX-13, NX-37, NX-43, NX-44, or NX-50 at 0, 0.1, 1 or 10 micromolar; NX-53, NX-54, NX-55, or NX-56 at 0, 0.1, or 1 micromolar; or NX-45 at 10, 50 or 100 nanomolar for 48 h. During the last 6 h of culture, cells were stimulated with phorbol 12-myristate-13-acetate (PMA) and ionomycin.
Cells were collected from 96 well plates and stained with a cocktail of antibodies for immunophenotyping by flow cytometry. Culture supernatant was collected and assayed for cytokine concentrations by cytometric bead array. Data was captured on a BD FACS Celesta and analyzed using FacsDiva.

For another assay, the target named is T1, Human NLRX1 (NLRX1-WT) (Homo sapiens, UniProt Q86UT6).
T1 construct: made in house; host or cells: Pichia pastoris
Briefly: Surface plasmon resonance binding to NLRX1-WT. Here is the method: (§1) NLRX1 production and purification. Human NLRX1 (www.uniprot.org; UniProtKB—Q86UT6 (NLRX1 HUMAN)) was cloned into E. coli, amplified and transfected in Pichia pastoris. P. pastoris was plated onto adenine selective media. Stable transfected colonies were selected and grown within YPD broth at 30° C. for 24 hours, 240 RPM shaking. Starter culture was used to inoculate base media (1% yeast extract, 2% peptone, 1% sorbitol, 2% yeast nitrogen base) containing biotin and buffered with potassium phosphate. Inoculated base media was incubated for 48 hours at 30° C., 240 RPM. P. pastoris was then pelleted by centrifugation and resuspended in expression media (1% sorbitol, 2% yeast nitrogen base) containing biotin and buffered with potassium phosphate. Culture was induced daily for protein production through addition of methanol and incubated for a total of 4 days at 28° C., 240 RPM. After incubation, cells were pelleted by centrifugation and lysed by sonication. Recombinant NLRX1 protein was purified by fast protein liquid chromatography (AktaPrime) using immobilized metal affinity chromatography. Fractions of protein were eluted in 1 mL aliquots and evaluated for NLRX1 content. A mutated NLRX1 protein was generated using similar methods to disrupt binding within the predicted binding site through altering four residues to alanine (D677A, F680A, F681A, and E684A).
(§2) A Biacore T200 was used to evaluate binding to the NLRX1 protein. NLRX1-WT and NLRX1-Mutant were used as proteins to immobilize onto the CM5 sensor chip. NLRX1-WT was diluted in 10 mM sodium acetate buffer at pH 4.0 and immobilized onto the flow cell to a level of ˜3700 RU, using standard amine coupling chemistry. NLRX1-Mutant was diluted in 10 mM sodium acetate buffer at pH 4.0 and immobilized onto the flow cell to a level of ˜3100 RU, using standard amine coupling chemistry. 20 mM MOPS, 150 mM NaCl, 5 mM sodium acetate, 1 mM EDTA, 0.05% Tween-20, pH 8.0 buffer (Running buffer) was used as the immobilization running buffer. Based on the immobilized response values, theoretical Rmax values were calculated. The Rmax values assume 1:1 interaction mechanism. Overnight kinetics were performed for all analytes binding to the immobilized proteins. The kinetics experiments were performed in the μL/min. presence of running buffer+1% DMSO. The flow rate of all solutions was maintained at 50 Analyte concentrations were 0 μM, 2.5 μM, 5 μM 10 μM 20 μM and 40 μM.

The test system of assay [1] is peripheral blood mononuclear cells (PBMCs) of Crohn's disease patients. Briefly: Ex vivo treatment of PBMCs of Crohn's disease patients, flow cytometry. It counts as cell-based, human. Here is the method: Samples were obtained from male and female donors clinically categorized as having moderate to severe disease. Age and current medications were not used as exclusion criteria. Whole blood was collected into heparinized vacuum tubes. Whole blood was diluted 1:3 volumes with sterile phosphate buffered saline. LeucoSep (Greiner) were prepared by addition of Lymphocyte Separation Media followed by 15 second centrifugation at max speed. Diluted whole blood was added to LeucoSep tubes. After centrifugation (2000×g, 20 min), PBMCs were collected from the interphase by Pasteur pipette. Remaining red blood cells were lysed by hypotonic lysis and suspension was filtered through a […] cell strainer. PBMCs were washed and re-suspended in sterile cell culture media, RPMI containing 10% fetal bovine serum, 2.5% Hepes solution, 1% L-glutamine, 1% penicillin/streptomycin, 1% sodium pyruvate, and 1% essential amino acids (complete RPMI).
Target cells were incubated for 24 h in complete RPMI culture media at 37° C. Cells were incubated in the presence of NX-13 ranging in concentration from 1 nM to 100 nM. NX-13 stock solution was prepared at 100 mM in dimethyl sulfoxide (DMSO) and diluted to desired concentration in culture media. DMSO concentrations were adjusted to be equal across all doses and vehicle treatments. Six hours prior to assay, cells were stimulated with phorbol 12-myristate 13-acetate (PMA) and ionomycin to stimulate cellular activation. Cells were assayed for desired data at 24 h.
Prior to collection, cells were incubated BD GolgiStop (2 μL GolgiStop to 3 mL of total media) to allow intracellular accumulation of cytokines. Cells were live stained with extracellular (CD45, CD3, CD4, CD8, CD11b) and intracellular (FOXP3, IL-10, IL-4, IFNγ, TNFα) in a sequential manner. Data was acquired on a BD FACs Celesta and analyzed using FACSDiva. Non-viable and non-singlet cells were excluded from analysis. Data is presented as percentage of CD45+ cells or % viable, singlets.
On the technique in general: In flow cytometry, cells or beads pass a laser one at a time.

Assay [2] concerns the target T2, mutated NLRX1 protein (D677A, F680A, F681A, E684A) (Homo sapiens, UniProt Q86UT6, D677A/E684A/F680A/F681A).
T2 construct: made in house; host or cells: Pichia pastoris (by 'similar methods')
Put plainly: Surface plasmon resonance binding to NLRX1-Mutant. Here is the method:
as §1
as §2, with “The Rmax values assume 1:1 interaction mechanism. Overnight kinetics were performed for all analytes binding to the immobilized proteins. The kinetics experiments were performed in the μL/min. presence of running buffer+1% DMSO. The flow rate of all solutions was maintained at 50 Analyte concentrations were 0 μM, 2.5 μM, 5 μM 10 μM 20 μM and 40 μM.” left out
For orientation: In SPR one partner is held on a chip, and binding of the other changes the refractive index at the surface.

Setting [3] is: wild-type cells, 48 h, PMA and ionomycin.
The mark [4] stands for this setting: PBMCs from Crohn's disease patients.

Where only a bound is given, the exact number is not on record here.

T1 sequence (Q86UT6 87-975): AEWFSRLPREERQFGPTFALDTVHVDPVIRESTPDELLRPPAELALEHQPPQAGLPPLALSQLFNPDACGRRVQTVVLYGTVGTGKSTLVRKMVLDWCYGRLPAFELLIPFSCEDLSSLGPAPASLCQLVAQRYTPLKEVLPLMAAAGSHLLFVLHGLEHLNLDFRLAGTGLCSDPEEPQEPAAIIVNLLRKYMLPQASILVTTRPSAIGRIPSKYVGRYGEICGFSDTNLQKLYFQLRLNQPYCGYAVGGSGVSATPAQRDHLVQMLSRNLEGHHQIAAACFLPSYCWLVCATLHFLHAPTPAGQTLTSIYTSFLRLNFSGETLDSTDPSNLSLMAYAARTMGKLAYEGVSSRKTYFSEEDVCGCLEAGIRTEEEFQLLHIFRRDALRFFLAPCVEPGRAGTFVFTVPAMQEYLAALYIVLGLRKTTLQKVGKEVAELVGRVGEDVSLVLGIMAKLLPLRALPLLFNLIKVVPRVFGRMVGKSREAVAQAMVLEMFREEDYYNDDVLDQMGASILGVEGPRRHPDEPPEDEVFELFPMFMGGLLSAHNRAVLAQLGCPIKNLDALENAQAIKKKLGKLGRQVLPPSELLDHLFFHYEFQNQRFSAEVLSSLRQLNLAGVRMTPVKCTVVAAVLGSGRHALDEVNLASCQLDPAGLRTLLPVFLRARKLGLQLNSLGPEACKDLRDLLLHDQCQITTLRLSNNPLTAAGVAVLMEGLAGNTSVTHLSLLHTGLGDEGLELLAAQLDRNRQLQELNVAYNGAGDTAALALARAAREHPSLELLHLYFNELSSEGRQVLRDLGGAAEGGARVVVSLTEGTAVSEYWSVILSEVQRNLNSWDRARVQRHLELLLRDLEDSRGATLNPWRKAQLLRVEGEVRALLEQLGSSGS
T2 sequence (Q86UT6 87-975 D677A/F680A/F681A/E684A): as the sequence (Q86UT6 87-975) above, with D591A, F594A, F595A, E598A counted along it

A word on the Kd: it is the concentration at which binding is half-saturated. For the molecule `Cc1cccc(Oc2cc(Oc3cccc(C)n3)cc(Oc3cccc(C)n3)c2)n1` [NX-13, 1,3,5-tris (6-methylpyridin-2-yloxy) benzene], in the assay with CD4+ T cells, the “function at NLRX1 concluded from the cytokine results” value is “activators of NLRX1”. Further, in the assay with CD4+ T cells (NLRX1 deficient cells), the “effects on IFNγ and TNFα producing CD4+ T cells in the absence of NLRX1” value was “these effects were lost”. In addition, in the assay with CD4+ T cells (setting [3]), the “proportion of IFNγ producing (IFNγ+) CD4+ T cells” value is given as “reduced” and the “proportion of TNFα producing (TNFα+) CD4+ T cells” value is “reduced”. The “binding to NLRX1 by surface plasmon resonance (in words)” value on Human NLRX1 (NLRX1-WT) was “bind to NLRX1”. At Human NLRX1 (NLRX1-WT) (1:1 binding model fitting, read-out: steady state dissociation constant KD), the dissociation constant Kd came out at 30.2 µM. In assay [1], the “concentrations at which IFNγ+ cells decreased” value is on record as “above 50 nM” and the “concentrations at which IL10+ CD4+ T cells increased” value is recorded as at least 50 nM. For the same molecule, in assay [1] (setting [4]), the “IFNγ+ cells” value is “Dose dependent decreases”, the “IL-4 producing CD4+ T cells” value is “potently decreased”, the “TNFα producing CD4+ T cells” value is reported as “potently decreased” and the “percentage of IL10+ CD4+ T cells” value is given as “increased”. In assay [1] (as low as), the “concentrations at which IL-4 producing CD4+ T cells decreased” value is given as at least 10 nM and the “concentrations at which TNFα producing CD4+ T cells decreased” value is given as at least 10 nM. Further, the “binding to the mutated NLRX1 protein” value in assay [2] is “Loss of binding”.
